Laboratory results published in patent publication US10058587B2, “Peptide composition for cancer treatment by inhibiting TRPV6 calcium channel activity” (priority 2008, dated 2018).
Where no end group is shown, it is not given here.

Key:
[1] = Physiological effects after i.v. injection into CD1 mice (blood pressure, heart rate, neurological/behavioral); format: in vivo
Description: After in vivo i.v. injection into CD1 mice, SorC13 caused a small spike (approximately 25%) in blood pressure in the first 15 min which disappeared by 1 hour.

[2] = test system: HEY C2 ovarian cancer cell line; experiment: Induction of apoptosis (APO-ONE caspase 3/7) and cell viability (CellTiter Blue); format: cell-based, human; parameters: key to Decline in cell viability: decreased (+); or not (−)
Description: HeyC2 was cultured in RPMI 1640 medium supplemented with 1.0 mM sodium pyruvate, 0.01 mg/mL insulin and 10% (v/v) fetal bovine serum.
(§1) The levels of apoptotic induction and cell viability were determined by multiplexing the measurements for single samples. CellTiter Blue and APO-ONE assay systems from Promega allows the determination of cell viability correlated to cell number, and induction of apoptosis. This protocol uses a fluorgenic peptide that contains a peptide recognition-sequence for caspase 3 and caspase 7, […] proteolytic enzymes of the apoptosis cascade. The CellTiter Blue reagent was added to wells in a 96-well plate containing cells under test, immediately after addition of peptide solution or vehicle. About 5000 cells were plated into the wells the day before. At the chosen time (Day 1, Day 2 etc.) the fluorescence was measured at 590 nm (emission) after excitation at 560 nm. The caspase 3/7 activity was measured (485 nm Ex/527 nm Em) in the same wells after adding 120 uL of the Apo-ONE reagent, freeze fracturing at −80° C. for 1 hr, and incubating for 1 hr at room temperature.
(§2) For this work, the concentrations of SorC13 and SorC27 used were 0 uM, 1 uM, 10 uM and 100 uM. The experiments extended over a 5 to 7 day period. All measurements were done in quadruplicate with both a blank (no cells) and control (vehicle, no peptide) used to correct the test measurements. The time-response data, and the dose-response data were plotted as means±standard error of the mean. Any statistical comparisons were done with the Student's t-test or by ANOVA analysis over the dose course. The level of statistical significance was considered to be the 95% confidence interval (i.e., p≤0.05).

[3] = Tissue distribution of Cy5.5-labeled peptides by optical imaging; format: in vivo, CD1 mice
Excerpt: SorC13 and SorC27 were labeled with the near-infrared probe, Cy5.5. SorC13 was labeled at lysine-1 and lysine-8 with the infrared fluorescent probe cy5.5 through reaction with Cy5.5 NHS ester-activated process. SorC27 was labeled at the single cysteine thiol with Cy5.5 maleamide-activated reaction. The labeled peptides were purified with a combination of size exclusion chromatography and HPLC. The label, Cy5.5, fluoresces in the infra-red region after excitation with a scanning laser. The low energy laser is able to penetrate the animal to about 1 cm and, thus, by scanning prone and supine positions, the presence of the tagged peptides can be quantified in three dimensions.
Cy5.5-labeled peptides were intravenously injected into CD1 mice (4 for each compound) at 100 ug per animal in 100 uL, and animals were imaged live using an optical imaging system, Optix eXplorer (GE Healthcare Systems) at different time points (30 min, 90 min, 4 h). […] The bio-distribution of the labeled peptides in different organs and tissues were visualized and relatively quantified by optical imaging analysis. This protocol allows for visualization of the location of the labeled peptides and how the location changes over time. […] Nodes that accumulated the labeled peptides are indicated by line 1 (superfacial cervical nodes), line 4 (axillary nodes), line 5 (brachial nodes), line 8 (mesenteric nodes) and line 9 (inguinal nodes). FIGS. 8, 9 and 10 show the amounts of labeled peptides in various organs ex vivo.

[4] = test system: CaOV3 ovarian cancer cell line; experiment: Induction of apoptosis (APO-ONE caspase 3/7) and cell viability (CellTiter Blue); format: cell-based, human; parameters: key to Decline in cell viability: decreased (+); or not (−)
Description: CAOV-3 was cultured in Dulbecco's Modified Eagle Medium (4.5 g/L glucose) with 4 mM L-glutamine, 1.5 g/L sodium bicarbonate and 10% (v/v) fetal bovine serum.
as §1, §2
To compare the effect of the two SorC-peptides against the gold-standard treatment for ovarian cancers SorC13 or SorC27 was compared to treatment with a carboplatin and taxol (CAT) cocktail (10 uM Paclitaxel, 20 mM carboplatin) using the APO-ONE assay, which measures the combined activities of caspase 3 and caspase 7. […]

Sequence | Physiol. effects in vivo (mice) @ 5 mg/kg ([1]; 5 mg/kg) | change in blood pressure or heart rate ([1]; i.v., 1 hour measurement period) | neurological/behavioral changes ([1]; i.v., over 72 hours) | Apoptosis Index (1 = no effect) ([2]; Day 6, SorC27 100 uM) | Apoptosis Index (1 = no effect) ([2]; Day 7, SorC27 10 uM) | Apoptosis Index (1 = no effect) ([2]; Day 7, SorC27 100 uM) | Decline in cell viability ([2]; SorC27) | detectable in tissues after perfusion ([3]; Cy5.5-tagged peptide, 24 hours) | tissue localization ([3]; Cy5.5-tagged peptide, i.v. 100 ug) | tissues with highest percent uptake (of total fluorescence) after perfusion ([3]; Cy5.5 labeled, 4 and 24 hours after i.v. injection) | apoptosis (treatment:control ratio) compared with CAT cocktail ([4]; CAT = 10 uM Paclitaxel, 20 mM carboplatin) | Apoptosis Index (1 = no effect) ([4]; Day5, SorC13 100 uM) | Decline in cell viability ([4]; Day5, SorC13 100 uM)
EGKLSSNDTEGGLCKEFLHPSKVDLPR [SorC27] | None observed over 72 hr | no change in blood pressure or heart rate | no also neurological/behavioral changes | 1.4 | 2.2 | 2.8 | + | still detectable | localize predominantly in lymph nodes, lung, liver and kidney | liver, lung and kidney |  |  | 
KEFLHPSKVDLPR [SorC13, KEFLHPSKVDLPR] |  |  |  |  |  |  |  |  |  |  | produced earlier and more intense apoptosis cascade than the CAT cocktail | 2.7 | +
